Key:
immature female rat [1] = experiment: immature female rat uterotrophic growth assay, antiestrogen assay; format: in vivo; conditions: 1 nM estradiol
Protocol: (§1) These trifluoromethyl substituted compounds were also studied with an immature female rat uterotrophic growth assay; the results are shown in FIGS. 12, 13, and 14. […] Therefore, the agonist responses observed in the in vitro cell proliferation assay were carried over to the intact animal as well. The antiestrogen assay evaluated the ability of the isomers to block the uterotrophic effect induced by 1 nM estradiol. […] Therefore, in both estrogen responsive cells and tissues these new ligands are producing differential responses in affinity and efficacy related to the site of trifluoromethyl substitution on the phenyl ring.

MCF-7 cells = experiment: proliferation assay of MCF-7 cells; format: cell-based; conditions: for effect on the proliferative response to estradiol: ligand added in the presence of 1 nM estradiol; for ability of the ligand to stimulate the proliferation of MCF-7 cells: ligand alone
Source text: Trifluoromethyl group was introduced onto phenylvinyl estradiol either at the ortho, meta, or para positions. These compounds were examined for their ability to stimulate or inhibit estrogen responses in two assay systems. […] The meta- and para-isomers gave substantially different profiles. […] Therefore, the position of the trifluoromethyl group exerted a significant effect on the efficacy of the ligand.

immature female rat [2] = experiment: immature female rat uterotrophic growth assay, estrogenic assay; format: in vivo
Protocol: as §1

SMILES	ability to block the uterotrophic effect induced by estradiol (immature female rat [1]; isomer at 10 and 100 nM)	effect on the proliferative response to estradiol (MCF-7 cells)	ability of the ligand to stimulate the proliferation of MCF-7 cells (MCF-7 cells)	estrogenic effect (uterotrophic growth) (immature female rat [2]; 3 nM level)	estrogenic effect (uterotrophic growth) (immature female rat [2]; 10 and 100 nM)	ability to block the uterotrophic effect induced by estradiol (immature female rat [1]; isomer at 100 nM)
CC12CCC3c4ccc(O)cc4CCC3C1CCC2(O)C=Cc1ccccc1C(F)(F)F (stereo not drawn) [Compound 4a, 17α-20E-21-(2-Trifluoromethylphenyl)-19-norpregna-1,3,5(10),20-tetraene-3,17β-diol]	enhancement of the estrogenic response	neither an enhancement nor a diminution of the proliferative response	full agonist response comparable to that of estradiol	effect comparable to estradiol	substantial estrogenic effects	–
CC12CCC3c4ccc(O)cc4CCC3C1CCC2(O)C=Cc1cccc(C(F)(F)F)c1 (stereo not drawn) [Compound 5a, 17α-20E-21-(3-Trifluoromethylphenyl)-19-norpregna-1,3,5(10),20-tetraene-3,17β-diol]	no significant effect on the estradiol response	antagonized the effects of estradiol at the same doses	weak proliferative effect at doses greater than 1 nM	–	little or no estrogenic effects	–
CC12CCC3c4ccc(O)cc4CCC3C1CCC2(O)C=Cc1ccc(C(F)(F)F)cc1 (stereo not drawn) [Compound 6a, 17α-20E-21-(4-Trifluoromethylphenyl)-19-norpregna-1,3,5(10),20-tetraene-3,17β-diol]	–	decreases in the estradiol effects were observed below 1 nM	did not elicit a proliferative response until a 10 nM dose was employed	–	little or no estrogenic effects	reduced the estrogenic response

From patent publication US8173628B2, “Steroidal antiestrogens and antiandrogens and uses thereof” (Northeastern University, priority 2000, dated 2012)
